Measurements: patent publication US20110135651A1, “METHOD AND COMPOSITION FOR ENHANCING HEMATOPOIETIC STEM CELL MOBILIZATION” (Children's Hospital Medical Center, priority 2008, published 2011)

How the values were obtained:
[1] = biological target: epidermal growth factor receptor (EGFR), mouse, wild type, on hematopoietic stem and progenitor cells (mouse) (UniProt Q01279); test: cell-based or functional assay
[2] = system: BM derived progenitor cells adhering to FBMD-1 stromal cells; test: CAFC progenitor adhesion assay on FBMD-1 stroma; assay type: cell-based, mice; details: BM derived HSPCs from G-CSF treated animals
Description: CAFC progenitor adhesion assays. FBMD-1 cells were seeded in IMDM supplemented with 15% FCS and 5% horse serum (Gibco) at a density of 1000 cells per well in a 96 well plate. BM cells were plated onto the FBMD-1 stroma cell line at 3000, 1500, 750 and 375 cells per well at 15 wells per cell concentration in CAFC medium (IMDM, supplemented with 20% horse serum (Gibco) and 10^−5 M hydrocortisone (Sigma)). To determine progenitor cell adhesion, non-adherent cells were washed off the FBMD-1 stroma after 2 hours and fresh CAFC medium was added to each well. The frequency of total HSPCs and adherent HSPCs was determined by counting the frequency of cobblestone areas at day 7 on the FBMD-1 stroma cell line.

Cdc42 = test: Rho-GTPase effector domain pull-down assay, Cdc42; assay type: in vivo, mice; details: for Cdc42 activity (GTP-bound form) in BM cells: in vivo in G-CSF treated animals, compared to G-CSF treatment alone (FIG. 7c, 7d)
Description: (§1) Rho-GTPase effector domain pull-down assays. Relative levels of GTP-bound RAC1, RAC2 and CDC42 were determined by an effector pull-down assay. Briefly, low density bone marrow cells (1×107) were lysed in a Mg2+ lysis/wash buffer (Upstate cell signaling solutions) containing 10% glycerol, 25 mM sodium fluoride, 1 mM sodium orthovanadate and a protease inhibitor cocktail (Roche Diagnostics). Samples were incubated with PAK-1 binding domain/agarose beads and bound (activated) as well as unbound (non-activated) Rho GTPases were probed by immunoblotting with antibodies specific for RAC1 (Upstate), RAC2 (Novus Biologicals) and CDC42 (BD Biosciences). Activated protein was normalized to total protein and β-actin (Sigma) and the relative amount was quantified by densitometry.

[3] = system: hematopoietic stem and progenitor cells (HSPCs); test: G-CSF induced HSPC mobilization, colony forming cell (CFC) assay of peripheral blood; assay type: in vivo, mice
Description: As mobilization efficiency of HSPC is a quantitative trait, quantitative trait locus (QTL) analysis was chosen as an approach to identify regulators of mobilization efficiency. Mice were mobilized with huG-CSF (Amgen) at 12.5 μg/ml in PBS/0.1% BSA and administered i.p. at 100 μg/kg/day once a day for 5 days and animals were analyzed on day 6. Murine recombinant EGF (0.2-3.6 μg/g) (Prepro tech, Rocky Hill, N.J.) was dissolved in PBS and administered i.p. on the last day of the G-CSF regimen. Erlotinib (2.5-100 mg/kg) was dissolved in methylcellulose and administered by gavage on day 3, 4, and 5 of the G-CSF regimen. A specific Cdc42 inhibitor (0.5 mg/ml) was dissolved in PBS containing 15% ethanol and administered by tail vain 18 h after the last G-CSF injection. Mobilization efficiency was determined with HSPC obtained approximately 14-16 hours after the last injection received by the group of mice.
Colony forming cell assays. 150 μl of peripheral blood (PB) was added to Hank's balanced salt solution (HBSS) and mixed with 4 ml of methylcellulose (Stem Cell Technologies) containing 50 ng/ml rm SCF, 10 ng/ml rm IL-3 and 10 ng/ml rh JL-6 and incubated at 37° C. Samples were plated in triplicate in 6 well plates (Falcon) and colonies of more than 50 cells were counted between 7 to 10 days. CFC counts were also determined in spleen (1×10^5) using the same protocol. The results are presented as mean±s.d. A paired student's t-test was used to determine the significance of the difference between means of two groups. Values were considered significant when p<0.05.

Rac2 = test: Rho-GTPase effector domain pull-down assay, Rac2; set-up: species or system mice; details: in vivo in G-CSF treated animals (data not shown)
Description: as §1

hematopoietic stem cells = test: Competitive transplantation of mobilized peripheral blood to measure stem cell frequency (donor chimerism); assay type: in vivo, mice
Description: Transplantations/Competitive transplantations. BM cells were harvested and pooled from the tibia and the femur of 6-8 week old mice (donor) as well as B6.5JL(BoyJ) (competitor) mice. […] BM cells were subsequently transplanted into the retro-orbital sinus in a volume of 200 μA in IMDM/2% FCS.
Flow cytometry. Immunostaining and flow cytometry analyses were performed according to standard procedures and analyzed on a FacsCanto flow cytometer (BD Biosciences). Anti-Ly5.2 (clone 104, BD Biosciences, FITC conjugated) and anti-Ly5.1 (clone A20, BD Biosciences, PE conjugated) monoclonal antibodies were used to distinguish donor from recipient and competitor cells. For lineage analysis in hematopoietic tissues, anti-CD3ε (clone 145-2C11, PE-Cy7 conjugated), anti-B220 (clone RA3-6B2, APC conjugated), anti-CD11b (clone M1/70, APC-Cy7 conjugated) and anti-Gr-1 (clone RB6-8C5, APC-Cy7 conjugated, all from BD Biosciences) were used.

Rac1 = test: Rho-GTPase effector domain pull-down assay, Rac1; set-up: species or system mice; details: in vivo in G-CSF treated animals (data not shown)
Description: as §1

EGFR = EGFR expression in BM HSPCs by real time Q-RT-PCR; assay type: in vivo, mice; details: upon G-CSF treatment (FIG. 3a)
Text: Whole genome expression analysis. RNA from sorted Lin-C-Kit+ cells were obtained with the Qiagen RNA assay micro kit according to the protocol of the manufacturer. RNA was subsequently linear amplified by the Affymetrix core at CCHMC and reverse transcribed with a Nugene Kit according to the manufacturer protocol. Labeled cDNA was then hybridized to and MOE430 array (Affymetrix) and raw expression data collected. Affymetrix .CEL files of the respective microarrays were imported into the statistical programming language R (www.r-project.org) using the affy Bioconductor (www.bioconductor.org) package. The data were then pre-processed (log2-transformed, background corrected, quantile normalized and summarized) using the rma function of the affy package. Affymetrix probes were filtered and re-grouped during summarization according to RefSeq annotation using custom chip description files (.CDF) for the MOE430 array provided by the Molecular and Behavioral Neuroscience Institute of the University of Michigan (Microarray Lab), http://brainarray.mbni.med.umich.edu/Brainarray/Database/CustomCDF/genomic_curated_CDF.asp). The expression level of the EGFR was subsequently confirmed by a Taqman real time PCR assay kit from Applied Biosystems (Assay ID: Mm01187863_g1)

## Murine recombinant EGF (epidermal growth factor) (from UniProt P01132 977-1029) (ligand)
[1]
  mobilization efficiency of progenitor cells in G-CSF stimulated animals (CFC in peripheral blood) (fold reduction): 4
  stem cell mobilization to PB (donor chimerism 3 months after competitive transplant): < 5 fold less

## EGF: Murine recombinant EGF (epidermal growth factor), activating ligand of EGFR
[2]; EGF 200 ng/ml (FIG. 7a)
  adhesion of progenitor cells to stroma: significantly enhanced adhesion
Cdc42
  Cdc42 activity (GTP-bound form) in BM cells: significant increase
[3]; G-CSF stimulated animals, single dose EGF 0.8 μg/g on last day of G-CSF regimen (FIG. 3b)
  reduction of mobilization efficiency of progenitor cells: approx. 4 fold
[3]; G-CSF stimulated animals, single dose EGF 0.2-1.0 on last injection day of G-CSF regimen (FIG. 3b)
  mobilization efficiency of progenitor cells: dose-dependent inhibition
[3]; congenic line 1804 compared to B6 mice, G-CSF and EGF treatment (FIG. 3g)
  sensitivity to inhibition of mobilization efficiency by EGF: significantly less sensitive
[3]; non-G-CSF treated animals, EGF dose range tested (data not shown)
  spontaneous mobilization: did not restrict
[3]; wa2+/- mice, G-CSF plus single injection of EGF on day 5 vs G-CSF alone (FIG. 3d)
  mobilization efficiency: unaffected
[3]; wild type mice, G-CSF plus single injection of EGF on day 5 vs G-CSF alone (FIG. 3c)
  mobilization efficiency: significantly reduced
Rac2
  level of the GTP bound form of Rac2: did not detect a significant change
Hematopoietic stem cells; G-CSF plus EGF (0.8 μg/g) vs G-CSF alone, equal volumes of blood (FIG. 3f)
  reduction of contribution to chimerism 3 months post transplant (stem cells mobilized to PB): approx. 5 fold
Rac1
  level of the GTP bound form of Rac1: did not detect a significant change

## C#Cc1cccc(Nc2ncnc3cc(OCCOC)c(OCCOC)cc23)c1 [Erlotinib, reference compound]
[2]; Erlotinib 10 mM (FIG. 7b)
  adhesion of progenitor cells to stroma: significantly reduced adhesion
Cdc42
  Cdc42 activity (GTP-bound form) in BM cells: significant decrease
[3]; Erlotinib 2.5-10 mg/kg over last 3 days of G-CSF regimen vs G-CSF (FIG. 5e)
  mobilization efficiency of progenitor cells: significantly increased
Rac2
  level of the GTP bound form of Rac2: did not detect a significant change
Hematopoietic stem cells; Erlotinib 2.5-10 mg/kg over last 3 days of G-CSF regimen vs G-CSF, competitive transplantation read-out
  mobilization efficiency of stem cells: significantly increased
Rac1
  level of the GTP bound form of Rac1: did not detect a significant change

B1: G-CSF: huG-CSF (Amgen), granulocyte colony-stimulating factor (protein, UniProt P09919 31-207, looked up)
Granulocyte …: TPLGPASSLPQSFLLKCLEQVRKIQGDGAALQEKLVSECATYKLCHPEELVLLGHSLGIPWAPLSSCPSQALQLAGCLSQLHSGLFLYQGLLQALEGISPELGPTLDTLQLDVADFATTIWQQMEELGMAPALQPTQGAMPAFASAFQRRAGGVLVASHLQSFLEVSYRVLRHLAQP
Cdc42; B6 animals, G-CSF treated relative to control non-treated animals (FIG. 7e)
  Cdc42 activity in LD-BM cells: significantly increased
Cdc42; line 1804 animals upon G-CSF treatment (FIG. 7e)
  Cdc42 activity in LD-BM cells: not being altered
EGFR
  EGFR expression levels in BM HSPCs: decreased
